Assay [1] has as its target Progesterone receptor (Homo sapiens) (UniProt P06401). The settings on record: Compound concentration 10.0 uM.
Assay [2] has as its target T1, Oxytocin receptor (Homo sapiens) (UniProt P30559).
T1 sequence (whole entry): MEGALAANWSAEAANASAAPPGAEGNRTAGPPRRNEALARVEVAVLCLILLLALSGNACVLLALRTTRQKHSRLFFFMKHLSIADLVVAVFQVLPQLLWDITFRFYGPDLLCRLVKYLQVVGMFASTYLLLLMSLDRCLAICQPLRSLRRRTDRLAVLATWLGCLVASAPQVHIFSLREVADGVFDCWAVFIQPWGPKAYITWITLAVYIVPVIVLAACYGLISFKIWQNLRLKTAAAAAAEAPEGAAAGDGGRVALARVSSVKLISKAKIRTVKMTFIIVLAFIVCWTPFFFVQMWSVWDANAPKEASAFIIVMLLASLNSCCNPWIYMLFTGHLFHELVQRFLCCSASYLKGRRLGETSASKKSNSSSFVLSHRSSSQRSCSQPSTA
Briefly: Inhibition of Oxytocin at 1 µM in the Eurofins-Panlabs radioligand binding assay (Eurofins_assay_260900). More on the design: ligand concentration 0.8 nM, non-specific ligand with concentration 1 µM Oxytocin, incubation time 2 h, incubation temperature 25°C.

Assay [3] has as its target Serine/threonine-protein kinase D1 (Homo sapiens) (UniProt Q15139). Briefly: Inhibition of PKCmu(h) at 10.0 µM in the Eurofins Kinase panel. The conditions noted are these: Compound concentration 10.0 uM.
For assay [4], the target named is Ribosomal protein S6 kinase beta-1 (Homo sapiens) (UniProt P23443). Briefly: Inhibition of p70S6K(h) at 10.0 µM in the Eurofins Kinase panel. The conditions noted are these: Compound concentration 10.0 uM.
For assay [5], the target named is MAP/microtubule affinity-regulating kinase 3 (Homo sapiens) (UniProt P27448). Briefly: Inhibition of MARK3(h) at 10.0 µM in the Eurofins Kinase panel. The settings on record: Compound concentration 10.0 uM.
Assay [6] deals with Interleukin-1 receptor-associated kinase 1 (Homo sapiens) (UniProt P51617). Briefly: Inhibition of IRAK1(h) at 10.0 µM in the Eurofins Kinase panel. The settings on record: Compound concentration 10.0 uM.
For assay [7], the target named is T2, Alpha-2B adrenergic receptor (Homo sapiens) (UniProt P18089).
T2 sequence (whole entry): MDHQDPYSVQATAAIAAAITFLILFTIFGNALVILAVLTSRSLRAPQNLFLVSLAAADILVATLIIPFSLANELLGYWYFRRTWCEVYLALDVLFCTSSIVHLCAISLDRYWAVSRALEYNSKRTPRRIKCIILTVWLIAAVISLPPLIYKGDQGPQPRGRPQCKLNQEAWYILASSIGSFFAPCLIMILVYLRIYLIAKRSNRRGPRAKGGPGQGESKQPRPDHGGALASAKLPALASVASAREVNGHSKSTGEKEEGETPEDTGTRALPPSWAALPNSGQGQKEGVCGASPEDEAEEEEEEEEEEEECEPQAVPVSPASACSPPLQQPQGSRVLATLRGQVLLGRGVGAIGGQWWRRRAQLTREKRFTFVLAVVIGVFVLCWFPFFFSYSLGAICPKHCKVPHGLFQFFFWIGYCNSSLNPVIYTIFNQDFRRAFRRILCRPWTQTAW
The settings on record: Compound concentration 10.0 uM.

Assay [8] concerns the target Type-1 angiotensin II receptor (Homo sapiens) (UniProt P30556). The settings on record: Compound concentration 10.0 uM.
Assay [9] has as its target Wee1-like protein kinase (Homo sapiens) (UniProt P30291). Briefly: Inhibition of WEE1(h) at 10.0 µM in the Eurofins Kinase panel. The conditions noted are these: Compound concentration 10.0 uM.
Assay [10] concerns the target Calcium/calmodulin-dependent protein kinase kinase 2 (Homo sapiens) (UniProt Q96RR4). Briefly: Inhibition of CaMKK2(h) at 10.0 µM in the Eurofins Kinase panel. The conditions noted are these: Compound concentration 10.0 uM.
The target in assay [11] is Ephrin type-B receptor 4 (Homo sapiens) (UniProt P54760). The experiment in a line: Inhibition of EphB4(h) at 10.0 µM in the Eurofins Kinase panel. The settings on record: Compound concentration 10.0 uM.
Assay [12] concerns the target Ephrin type-A receptor 2 (Homo sapiens) (UniProt P29317). The experiment in a line: Inhibition of EphA2(h) at 10.0 µM in the Eurofins Kinase panel. The settings on record: Compound concentration 10.0 uM.
Assay [13] concerns the target Platelet-derived growth factor receptor beta (Homo sapiens) (UniProt P09619). Briefly: Inhibition of PDGFRbeta(h) at 10.0 µM in the Eurofins Kinase panel. The conditions noted are these: Compound concentration 10.0 uM.
The target in assay [14] is CDK4/Cyclin D3 (Homo sapiens) (UniProt P11802+P30281). Briefly: Inhibition of CDK4/cyclinD3(h) at 10.0 µM in the Eurofins Kinase panel. Type of assay: protein-complex assay. The conditions noted are these: Compound concentration 10.0 uM.
In assay [15] the target is Kappa-type opioid receptor (Homo sapiens, UniProt P41145). The conditions noted are these: Compound concentration 10.0 uM.
In assay [16] the target is Insulin-like growth factor 1 receptor (Homo sapiens) (UniProt P08069). The experiment in a line: Inhibition of IGF-1R(h) at 10.0 µM in the Eurofins Kinase panel. The conditions noted are these: Compound concentration 10.0 uM.
In assay [17] the target is Cyclin-dependent kinase 1/cyclin B1 (Homo sapiens) (UniProt P06493+P14635). The experiment in a line: Inhibition of CDK1/cyclinB(h) at 10.0 µM in the Eurofins Kinase panel. The assay is classed as protein-complex assay. The conditions noted are these: Compound concentration 10.0 uM.
For assay [18], the target named is G protein-coupled receptor kinase 5 (Homo sapiens) (UniProt P34947). Briefly: Inhibition of GRK5(h) at 10.0 µM in the Eurofins Kinase panel. The conditions noted are these: Compound concentration 10.0 uM.
In assay [19] the target is Mitogen-activated protein kinase kinase kinase 5 (Homo sapiens) (UniProt Q99683). Briefly: Inhibition of ASK1(h) at 10.0 µM in the Eurofins Kinase panel. The settings on record: Compound concentration 10.0 uM.
Assay [20] addresses Cannabinoid receptor 2 (Homo sapiens) (UniProt P34972). The settings on record: Compound concentration 10.0 uM.
Assay [21] has as its target Receptor tyrosine-protein kinase erbB-2 (Homo sapiens) (UniProt P04626). The experiment in a line: Inhibition of ErbB2(h) at 10.0 µM in the Eurofins Kinase panel. The conditions noted are these: Compound concentration 10.0 uM.
Assay [22] has as its target PAS domain-containing serine/threonine-protein kinase (Homo sapiens) (UniProt Q96RG2). The experiment in a line: Inhibition of PASK(h) at 10.0 µM in the Eurofins Kinase panel. The settings on record: Compound concentration 10.0 uM.
The target in assay [23] is Platelet-activating factor receptor (Homo sapiens) (UniProt P25105). Briefly: Inhibition of Platelet Activating Factor (PAF) at 10 µM in the Eurofins-Panlabs radioligand binding assay (Eurofins_assay_265010). The conditions noted are these: Compound concentration 10.0 uM.
For assay [24], the target named is cGMP-specific 3',5'-cyclic phosphodiesterase (Homo sapiens) (UniProt O76074). The settings on record: Compound concentration 10.0 uM.
For assay [25], the target named is Mitogen-activated protein kinase 3 (Homo sapiens) (UniProt P27361). Briefly: Inhibition of Protein Serine/Threonine Kinase, MAPK3 (ERK1) at 10 µM in the Eurofins-Panlabs enzyme assay (Eurofins_assay_171000). The conditions noted are these: Compound concentration 10.0 uM.
A further assay is filed under the species Oryctolagus cuniculus. The experiment in a line: Inhibition of Purinergic P2X at 10 µM in the Eurofins-Panlabs radioligand binding assay (Eurofins_assay_268700). The assay is classed as protein assay. The settings on record: Compound concentration 10.0 uM.
In assay [26] the target is Rho-associated protein kinase 2 (Homo sapiens) (UniProt O75116). The experiment in a line: Inhibition of ROCK-II(h) at 10.0 µM in the Eurofins Kinase panel. The settings on record: Compound concentration 10.0 uM.
The target of a further assay is Caspase-1 (Homo sapiens) (UniProt P29466). Briefly: Inhibition of Peptidase, CASP1 (Caspase 1) at 10 µM in the Eurofins-Panlabs enzyme assay (Eurofins_assay_163000). The conditions noted are these: Compound concentration 10.0 uM.

Kappa-type opioid receptor, sequence (P41145 whole entry): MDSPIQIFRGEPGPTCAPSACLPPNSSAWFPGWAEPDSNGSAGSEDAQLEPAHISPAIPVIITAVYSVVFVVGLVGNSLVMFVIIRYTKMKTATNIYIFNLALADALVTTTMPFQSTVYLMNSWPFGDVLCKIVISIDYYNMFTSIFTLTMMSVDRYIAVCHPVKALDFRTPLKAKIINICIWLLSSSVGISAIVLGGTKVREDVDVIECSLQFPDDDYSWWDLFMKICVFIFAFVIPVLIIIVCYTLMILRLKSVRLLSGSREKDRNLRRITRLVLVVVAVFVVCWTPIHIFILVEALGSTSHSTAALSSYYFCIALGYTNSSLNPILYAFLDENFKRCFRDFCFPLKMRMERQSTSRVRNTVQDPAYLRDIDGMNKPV
MAP/microtubule affinity-regulating kinase 3 (Homo sapiens), sequence (P27448 whole entry, looked up): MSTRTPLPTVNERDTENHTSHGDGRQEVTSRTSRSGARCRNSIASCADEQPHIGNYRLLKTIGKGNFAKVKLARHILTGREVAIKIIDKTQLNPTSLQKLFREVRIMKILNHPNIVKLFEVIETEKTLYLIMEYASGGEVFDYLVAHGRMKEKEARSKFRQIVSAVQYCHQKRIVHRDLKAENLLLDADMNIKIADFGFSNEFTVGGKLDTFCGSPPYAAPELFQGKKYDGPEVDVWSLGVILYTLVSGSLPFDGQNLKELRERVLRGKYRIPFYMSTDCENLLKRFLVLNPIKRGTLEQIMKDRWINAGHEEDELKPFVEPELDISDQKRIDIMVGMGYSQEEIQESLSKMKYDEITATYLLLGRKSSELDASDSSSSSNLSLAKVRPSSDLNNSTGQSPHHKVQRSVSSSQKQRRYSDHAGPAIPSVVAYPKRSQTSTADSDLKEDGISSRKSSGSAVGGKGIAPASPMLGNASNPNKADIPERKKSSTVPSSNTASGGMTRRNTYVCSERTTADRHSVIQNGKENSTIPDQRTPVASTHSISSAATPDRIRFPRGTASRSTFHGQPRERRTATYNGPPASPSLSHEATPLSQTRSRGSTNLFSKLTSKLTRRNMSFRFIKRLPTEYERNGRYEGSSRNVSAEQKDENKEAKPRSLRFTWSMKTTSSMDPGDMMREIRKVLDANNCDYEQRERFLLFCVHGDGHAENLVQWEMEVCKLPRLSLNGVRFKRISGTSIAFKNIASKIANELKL
Interleukin-1 receptor-associated kinase 1 (Homo sapiens), sequence (P51617 whole entry, looked up): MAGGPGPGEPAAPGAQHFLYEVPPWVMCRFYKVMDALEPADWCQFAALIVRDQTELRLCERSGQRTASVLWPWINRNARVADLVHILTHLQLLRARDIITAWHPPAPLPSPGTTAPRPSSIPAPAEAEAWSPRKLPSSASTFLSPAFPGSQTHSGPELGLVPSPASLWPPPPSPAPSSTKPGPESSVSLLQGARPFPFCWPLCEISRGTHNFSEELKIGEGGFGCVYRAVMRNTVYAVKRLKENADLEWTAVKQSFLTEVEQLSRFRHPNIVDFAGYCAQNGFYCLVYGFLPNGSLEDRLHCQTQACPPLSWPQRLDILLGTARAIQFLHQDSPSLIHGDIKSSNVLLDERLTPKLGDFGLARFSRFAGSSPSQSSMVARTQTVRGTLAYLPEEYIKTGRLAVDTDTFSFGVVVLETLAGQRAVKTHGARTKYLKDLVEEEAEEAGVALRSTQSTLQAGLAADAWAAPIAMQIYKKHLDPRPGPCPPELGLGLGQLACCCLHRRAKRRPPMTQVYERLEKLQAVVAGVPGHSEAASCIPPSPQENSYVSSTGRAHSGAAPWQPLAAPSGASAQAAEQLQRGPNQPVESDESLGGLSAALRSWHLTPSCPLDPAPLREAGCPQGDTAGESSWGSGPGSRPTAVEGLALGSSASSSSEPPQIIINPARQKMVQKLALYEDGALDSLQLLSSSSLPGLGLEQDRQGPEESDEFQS
PAS domain-containing serine/threonine-protein kinase (Homo sapiens), sequence (Q96RG2 whole entry, the tested form may be a part): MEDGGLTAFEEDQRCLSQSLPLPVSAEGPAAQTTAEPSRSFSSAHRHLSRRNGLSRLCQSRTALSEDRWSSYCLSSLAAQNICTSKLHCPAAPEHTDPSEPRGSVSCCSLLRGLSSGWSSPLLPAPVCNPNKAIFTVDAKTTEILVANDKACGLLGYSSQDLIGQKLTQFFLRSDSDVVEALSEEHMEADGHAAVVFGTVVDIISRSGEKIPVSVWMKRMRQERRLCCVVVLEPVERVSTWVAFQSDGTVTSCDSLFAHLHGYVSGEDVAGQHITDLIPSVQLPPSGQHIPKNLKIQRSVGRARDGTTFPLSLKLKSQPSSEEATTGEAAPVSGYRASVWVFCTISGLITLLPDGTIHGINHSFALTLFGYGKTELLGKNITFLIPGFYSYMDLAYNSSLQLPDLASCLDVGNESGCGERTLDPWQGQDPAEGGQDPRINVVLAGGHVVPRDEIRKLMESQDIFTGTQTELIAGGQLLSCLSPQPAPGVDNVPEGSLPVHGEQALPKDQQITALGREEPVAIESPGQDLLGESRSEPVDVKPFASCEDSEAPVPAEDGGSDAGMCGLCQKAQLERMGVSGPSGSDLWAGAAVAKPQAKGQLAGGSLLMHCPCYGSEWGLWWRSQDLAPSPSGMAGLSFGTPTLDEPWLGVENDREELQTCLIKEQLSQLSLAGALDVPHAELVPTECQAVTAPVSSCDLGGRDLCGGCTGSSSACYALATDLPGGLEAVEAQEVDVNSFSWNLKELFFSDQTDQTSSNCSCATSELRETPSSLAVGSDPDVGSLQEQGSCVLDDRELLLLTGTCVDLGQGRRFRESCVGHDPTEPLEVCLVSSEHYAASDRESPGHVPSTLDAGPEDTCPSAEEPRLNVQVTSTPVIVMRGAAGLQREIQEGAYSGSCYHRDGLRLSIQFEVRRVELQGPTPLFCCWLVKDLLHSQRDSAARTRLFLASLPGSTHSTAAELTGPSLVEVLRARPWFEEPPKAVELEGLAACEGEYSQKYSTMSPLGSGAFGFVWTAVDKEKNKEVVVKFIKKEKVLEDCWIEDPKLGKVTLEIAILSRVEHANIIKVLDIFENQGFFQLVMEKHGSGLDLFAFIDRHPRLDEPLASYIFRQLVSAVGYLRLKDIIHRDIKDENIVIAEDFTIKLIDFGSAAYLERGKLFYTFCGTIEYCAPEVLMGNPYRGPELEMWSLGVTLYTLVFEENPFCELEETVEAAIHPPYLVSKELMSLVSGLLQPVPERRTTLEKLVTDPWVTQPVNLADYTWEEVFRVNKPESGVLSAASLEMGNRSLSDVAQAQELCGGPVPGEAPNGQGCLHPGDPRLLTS
Ribosomal protein S6 kinase beta-1 (Homo sapiens), sequence (P23443 whole entry, looked up): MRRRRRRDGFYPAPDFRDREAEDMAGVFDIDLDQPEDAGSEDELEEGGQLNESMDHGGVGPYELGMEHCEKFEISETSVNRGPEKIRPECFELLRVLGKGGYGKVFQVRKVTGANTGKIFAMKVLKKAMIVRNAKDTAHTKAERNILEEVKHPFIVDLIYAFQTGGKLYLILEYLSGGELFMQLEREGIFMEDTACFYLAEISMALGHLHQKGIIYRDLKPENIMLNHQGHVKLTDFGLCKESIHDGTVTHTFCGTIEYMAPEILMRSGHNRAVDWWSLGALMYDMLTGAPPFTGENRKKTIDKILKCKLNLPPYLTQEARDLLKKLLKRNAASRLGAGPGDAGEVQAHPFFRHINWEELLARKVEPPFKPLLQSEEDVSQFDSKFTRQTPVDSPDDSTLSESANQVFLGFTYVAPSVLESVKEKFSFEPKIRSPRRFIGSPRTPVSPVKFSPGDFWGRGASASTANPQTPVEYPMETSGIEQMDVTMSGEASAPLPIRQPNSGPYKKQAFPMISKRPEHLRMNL
G protein-coupled receptor kinase 5 (Homo sapiens), sequence (P34947 whole entry, looked up): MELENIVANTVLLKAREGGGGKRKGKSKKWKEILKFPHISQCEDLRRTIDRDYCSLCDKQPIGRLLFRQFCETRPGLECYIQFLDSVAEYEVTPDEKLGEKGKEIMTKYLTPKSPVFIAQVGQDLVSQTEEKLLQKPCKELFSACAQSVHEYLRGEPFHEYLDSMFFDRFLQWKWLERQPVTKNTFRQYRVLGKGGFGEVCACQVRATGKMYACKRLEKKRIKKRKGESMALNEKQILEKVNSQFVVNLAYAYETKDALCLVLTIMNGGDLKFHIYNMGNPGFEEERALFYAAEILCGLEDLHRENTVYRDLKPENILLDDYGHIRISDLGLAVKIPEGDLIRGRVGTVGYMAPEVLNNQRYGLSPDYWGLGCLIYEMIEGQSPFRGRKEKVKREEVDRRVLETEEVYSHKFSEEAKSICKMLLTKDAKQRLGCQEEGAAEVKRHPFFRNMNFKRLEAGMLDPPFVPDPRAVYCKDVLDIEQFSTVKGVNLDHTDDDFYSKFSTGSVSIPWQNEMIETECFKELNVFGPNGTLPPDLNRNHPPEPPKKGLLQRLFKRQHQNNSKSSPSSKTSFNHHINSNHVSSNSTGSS
Cyclin-dependent kinase 1/cyclin B1 (Homo sapiens), sequence (P06493 whole entry, looked up): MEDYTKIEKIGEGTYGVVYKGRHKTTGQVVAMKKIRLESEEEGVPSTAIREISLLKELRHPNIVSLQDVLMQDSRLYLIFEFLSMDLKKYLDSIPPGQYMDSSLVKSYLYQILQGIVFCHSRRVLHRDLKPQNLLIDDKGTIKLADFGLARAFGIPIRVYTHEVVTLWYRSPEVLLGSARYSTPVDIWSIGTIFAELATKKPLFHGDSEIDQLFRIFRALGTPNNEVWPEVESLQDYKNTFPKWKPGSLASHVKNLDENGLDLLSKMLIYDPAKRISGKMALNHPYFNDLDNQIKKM
Cyclin-dependent kinase 1/cyclin B1 (Homo sapiens), sequence (P14635 whole entry, looked up): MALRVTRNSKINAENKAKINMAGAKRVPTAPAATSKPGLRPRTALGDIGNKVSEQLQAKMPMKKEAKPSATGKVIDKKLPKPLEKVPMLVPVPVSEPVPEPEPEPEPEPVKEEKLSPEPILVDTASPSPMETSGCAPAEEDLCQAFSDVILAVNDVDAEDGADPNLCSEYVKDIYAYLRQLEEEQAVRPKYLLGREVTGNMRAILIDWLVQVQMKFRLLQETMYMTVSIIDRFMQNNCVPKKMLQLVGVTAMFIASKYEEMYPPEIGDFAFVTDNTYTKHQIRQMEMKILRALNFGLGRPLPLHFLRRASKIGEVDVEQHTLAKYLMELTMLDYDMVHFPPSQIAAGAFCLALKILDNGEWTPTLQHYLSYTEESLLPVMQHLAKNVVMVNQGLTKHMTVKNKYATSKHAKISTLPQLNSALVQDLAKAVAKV

As for `O=c1n(Cc2cncn2-c2cccc(Cl)c2)nc(-c2ccc(Cl)cc2)n1C[C@H](O)C(F)(F)F`, the inhibition (usually the change of the read-out against control, counted positive when it falls) was 25% in assay [1]; 12% in [2] (Compound concentration 10.0 uM); 5.31% in [3]; 4.83% in assay [4]; -3.59% in [5]; 1.24% in assay [6]. Besides, the inhibition in assay [7] is 2%; in [8] it was -6%; in [9] it was -5.39%; in [10], -6.67%; in assay [11] it was -2.17%; in [12] it was -5.2%. Moreover, the inhibition in assay [13] was -9.1%; in assay [14], 7.51%; in [15] it was 3.83%; in [16] it was -8.87%; in assay [17], -8.48%; in assay [18], -0.58%. Further, the inhibition was -1.47% in [19], 14% in assay [20], -4.27% in assay [21] and -0.36% in assay [22].
As to `C[C@H](O)c1nc(Cn2nc(-c3ccc(Cl)cc3)n(C[C@H](O)C(F)(F)F)c2=O)nn1-c1cccc(Cl)c1` [PECAVAPTAN], the inhibition is 3% in assay [2] (Compound concentration 0.0001 uM); 6% in [2] (Compound concentration 0.001 uM); 41% in assay [2] (Compound concentration 0.01 uM); 84% in assay [2] (Compound concentration 0.1 uM); 95% in assay [2] (Compound concentration 1.0 uM); -6.51% in assay [3]. Besides, the inhibition in [4] was 1.02%; in assay [5], -2.13%; in [6] it was -0.22%; in [7], 8%; in assay [10], -6.9%; in assay [12], -2%. Besides, the inhibition in assay [23] is 17%; in assay [24] it was -10%; in assay [13] it was -5.19%; in assay [14], 5.58%; in assay [25], -7%; in [15], 62.4%. Moreover, the inhibition in the assay listed under Oryctolagus cuniculus was 18%; in assay [17], -5.4%; in assay [26], 18.1%; at Caspase-1 (Homo sapiens), 0%; in [18], 2.6%; in assay [19], -8.63%. Also, the results for the inhibition in [21] and in [22] were -6.43% and -4.97%, respectively.
